Experimental data from PMC6321252 (Molecules, 2018).

What was measured:
db/db mice = assay: Hypoglycemic study in diabetic db/db mice; format: in vivo, C57BLKS/J db/db mice; conditions: for AUC for the IPTT vs nontreated db/db mice / AUC for the OGTT vs nontreated db/db mice: 5 weeks administration; for AUC for the IPTT vs nontreated db/db mice / AUC for the OGTT vs nontreated db/db mice / effect on body weight (obesity): metformin 150 mg/kg, BB 200 mg/kg, BB 200 mg/kg plus OPCs 60 mg/kg; for effect on body weight (obesity): repeated oral administration 4 weeks
Experimental: Male C57BLKS/J db/db and db/m mice were obtained from the Model Animal Research Center of Nanjing University (Nanjing, China). The mice were housed in a temperature-and humidity-controlled room with free access to standard chow and water under a 12/12-h light/dark cycle. At 6 weeks of age, the diabetic db/db mice were randomly divided into 4 groups (n = 10 per group). […] After 6 h of fasting, their blood glucose was monitored using blood from the tail vein and a glucometer (Accu-CHEK, Roche, IN, USA) every week. On Days 33 and 35 after drug administration, the mice were fasted for 12 and 6 h to perform an OGTT and IPTT, respectively. At the end of the experimental period, the mice’s blood was collected for further studies. Serum TG and TC levels were assayed using commercial enzyme assay kits (Rongsheng, Shanghai, China).

[1] = set-up: method as in PMID 21637946; conditions: cited from earlier work
[2] = Transepithelial transport of BB across Caco-2 cell monolayers; format: in vitro ADME; conditions: human, read-out: efflux ratio R = Papp(B-A)/Papp(A-B) of BB
Experimental: (§1) Monolayers were employed at 21 days after seeding. To ensure the integrity of each cell monolayer, transepithelial electrical resistance was determined. Subsequently, cell monolayers were incubated with compounds in fresh incubation media from either the AP or BL side for designated time periods at 37 °C. The volume of incubation media on the AP and BL sides was 0.5 and 1.5 mL, respectively, and a 30 µL aliquot of the incubation solution was withdrawn at designated time points (60, 120, 180, and 240 min) from the receiver compartment and replaced with the same volume of a fresh prewarmed HBSS buffer.
(§2) BB concentrations were detected through LC–MS/MS. Apparent permeability (Papp) was calculated as follows:Papp = (dQ/dt) × VA/(C0 × A)(1) where dQ/dt is the permeability rate, A is the surface area of the monolayer, and C0 is the initial concentration of the drug.

Caco-2 cell monolayers = assay: as above; format: in vitro ADME
Experimental: as §1, §2

Caco-2 cells = assay: Cell viability (MTT assay) in Caco-2 cells; format: cell-based; conditions: BB 12.5 to 50 μM, 24 h
Experimental: The cells were treated with different doses of compounds and incubated for 24 h. Cell viability was determined using the MTT assay. Briefly, the cells were incubated with the MTT reagent (0.5 mg/mL) at 37 °C for 4 h, and the absorbency at a wavelength of 492 nm was measured using FlexStation 3 (Molecular Devices, Sunnyvale, CA, USA). The percentage of optical density was calculated by comparing with that of the control group.

P-gp = conditions: cited from earlier work

efflux ratio at 240 min [2]	Papp(A-B) of BB (Caco-2 cell monolayers; apical to basolateral)	Papp(B-A) of BB (Caco-2 cell monolayers; basolateral to apical)	SMILES	AUC for the IPTT vs nontreated db/db mice (db/db mice; p < 0.001 vs. control)	AUC for the OGTT vs nontreated db/db mice (db/db mice; p < 0.001 vs. control)	effect on body weight (obesity) (db/db mice)	oral bioavailability [1]	hepatotoxicity (from serum ALT and AST) (db/db mice; 5 weeks, BB 200 mg/kg with or without OPCs 60 mg/kg)	lowering of fasting blood glucose (FBG) (db/db mice; oral, 4 weeks, BB 200 mg/kg with or without OPCs 60 mg/kg, p < 0.001 vs. control)	cytotoxicity on Caco-2 cells (MTT) (Caco-2 cells)	P-gp substrate status (P-gp)
			CN(C)C(=N)N=C(N)N [metformin]	significantly lower	significantly lower	no significant effect					
7.74 ± 1.13	0.146 ± 0.012 ×10^−6	1.001 ± 0.049 ×10^−6	COc1ccc2cc3[n+](cc2c1OC)CCc1cc2c(cc1-3)OCO2 [BB, Berberine]	significantly lower	significantly lower	no significant effect	< 1%	did not cause hepatotoxicity	35%	no toxic effect	substrate of P-gp
